{"source": "patent US9969699B2", "about": "“Cancer cell growth inhibitor, anticancer agent, and method for screening same, as well as novel compound” (Microbial Chemistry Research Foundation, priority 2014, dated 2018)", "key": {"[1]": {"assay": "Acute toxicity test, oral administration", "assay_type": "in vivo, ICR mice", "settings": "orally once; for Organ weight Heart / Organ weight Kidney (Left) / Organ weight Kidney (Right) / Organ weight Liver / Organ weight Lung / Organ weight Spleen / Organ weight Thymus: two weeks after", "excerpt": "Two-weeks after the compounds represented by the Structural Formula (1) at the above concentrations were orally administered, the mice were dissected and organs thereof were weighed.\nTwo-weeks after the compounds represented by the Structural Formula (8) at the above concentrations were orally administered, the mice were dissected and organs thereof were weighed."}, "KS-1 cells": {"test_system": "KS-1 cells", "assay": "3D cell culture step, EGFR vIII gene non-expressing brain tumor cells KS-1", "assay_type": "cell-based", "settings": "Test Example 3, KS-1 cells", "method": "The following 3 brain tumor cells were used as the EGFR vIII gene non-expressing cells. • U251 cells (available from ATCC) • U87MG cells (available from ATCC) • KS-1 cells (available from ATCC) <3D Cell Culture Step>\n(§1) After the 3 days of culture, the number of viable cells was counted by […]-GLO (trademark) Luminescent Cell Viability Assay (available from Promega), which was a method for quantitating ATP in viable cells. A cell proliferation inhibition rate in the 3D cell culture step was calculated according to (Expression 3) below. Cell proliferation inhibition rate(%)=(1−X/Y)×100 (Expression 3)\n(§2) In the (Expression 3), X denotes the number of viable cells when the test substance was added, and Y denotes the number of viable cells when the test substance was not added."}, "NIH3T3/EGFR vIII cells": {"test_system": "NIH3T3/EGFR vIII cells", "assay": "3D cell culture step (environment without adhesion scaffold), proliferation of NIH3T3/EGFR vIII cells", "assay_type": "cell-based, mouse"}, "NIH3T3/EGFRWT cells": {"test_system": "NIH3T3/EGFRWT cells", "assay": "3D cell culture step, NIH3T3/EGFRWT cells in EGF-including medium", "assay_type": "cell-based, mouse", "method": "as §1, §2"}}, "data": [{"compound": "Nc1ccc(Br)cc1-c1nc2ccccc2[nH]c1=O", "note": "[Structural Formula (1), 3-(2-amino-5-bromophenyl)-2(1H)-quinoxalinone]", "values": [{"measurement": "Organ weight Heart", "setting": "[1]; 0.098 mg/kg/0.2 mL", "value": 124.0, "unit": "mg"}, {"measurement": "Organ weight Kidney (Left)", "setting": "[1]; 0.098 mg/kg/0.2 mL", "value": 183.0, "unit": "mg"}, {"measurement": "Organ weight Kidney (Right)", "setting": "[1]; 0.098 mg/kg/0.2 mL", "value": 191.0, "unit": "mg"}, {"measurement": "Organ weight Liver", "setting": "[1]; 0.098 mg/kg/0.2 mL", "value": 1524.0, "unit": "mg"}, {"measurement": "Organ weight Lung", "setting": "[1]; 0.098 mg/kg/0.2 mL", "value": 163.0, "unit": "mg"}, {"measurement": "Organ weight Spleen", "setting": "[1]; 0.098 mg/kg/0.2 mL", "value": 132.0, "unit": "mg"}, {"measurement": "Organ weight Heart", "setting": "[1]; 6.25 mg/kg/0.2 mL", "value": 122.0, "unit": "mg"}, {"measurement": "Organ weight Lung", "setting": "[1]; 6.25 mg/kg/0.2 mL", "value": 169.0, "unit": "mg"}, {"measurement": "Organ weight Thymus", "setting": "[1]; 6.25 mg/kg/0.2 mL", "value": 112.0, "unit": "mg"}, {"measurement": "Organ weight Heart", "setting": "[1]; 12.5 mg/kg/0.2 mL", "value": 143.0, "unit": "mg"}, {"measurement": "Organ weight Kidney (Left)", "setting": "[1]; 12.5 mg/kg/0.2 mL", "value": 177.0, "unit": "mg"}, {"measurement": "Organ weight Kidney (Right)", "setting": "[1]; 12.5 mg/kg/0.2 mL", "value": 177.0, "unit": "mg"}, {"measurement": "Organ weight Liver", "setting": "[1]; 12.5 mg/kg/0.2 mL", "value": 1327.0, "unit": "mg"}, {"measurement": "Organ weight Lung", "setting": "[1]; 12.5 mg/kg/0.2 mL", "value": 191.0, "unit": "mg"}, {"measurement": "Organ weight Spleen", "setting": "[1]; 12.5 mg/kg/0.2 mL", "value": 173.0, "unit": "mg"}, {"measurement": "Organ weight Thymus", "setting": "[1]; 12.5 mg/kg/0.2 mL", "value": 99.0, "unit": "mg"}, {"measurement": "Organ weight Heart", "setting": "[1]; 25 mg/kg/0.2 mL", "value": 116.0, "unit": "mg"}, {"measurement": "Organ weight Kidney (Left)", "setting": "[1]; 25 mg/kg/0.2 mL", "value": 157.0, "unit": "mg"}, {"measurement": "Organ weight Kidney (Right)", "setting": "[1]; 25 mg/kg/0.2 mL", "value": 169.0, "unit": "mg"}, {"measurement": "Organ weight Liver", "setting": "[1]; 25 mg/kg/0.2 mL", "value": 1290.0, "unit": "mg"}, {"measurement": "Organ weight Lung", "setting": "[1]; 25 mg/kg/0.2 mL", "value": 176.0, "unit": "mg"}, {"measurement": "Organ weight Spleen", "setting": "[1]; 25 mg/kg/0.2 mL", "value": 100.0, "unit": "mg"}, {"measurement": "Organ weight Thymus", "setting": "[1]; 25 mg/kg/0.2 mL", "value": 87.0, "unit": "mg"}, {"measurement": "Organ weight Heart", "setting": "[1]; 50 mg/kg/0.4 mL", "value": 115.0, "unit": "mg"}, {"measurement": "Organ weight Kidney (Left)", "setting": "[1]; 50 mg/kg/0.4 mL", "value": 150.0, "unit": "mg"}, {"measurement": "Organ weight Kidney (Right)", "setting": "[1]; 50 mg/kg/0.4 mL", "value": 155.0, "unit": "mg"}, {"measurement": "Organ weight Liver", "setting": "[1]; 50 mg/kg/0.4 mL", "value": 1403.0, "unit": "mg"}, {"measurement": "Organ weight Lung", "setting": "[1]; 50 mg/kg/0.4 mL", "value": 166.0, "unit": "mg"}, {"measurement": "Organ weight Spleen", "setting": "[1]; 50 mg/kg/0.4 mL", "value": 117.0, "unit": "mg"}, {"measurement": "Organ weight Thymus", "setting": "[1]; 50 mg/kg/0.4 mL", "value": 95.0, "unit": "mg"}, {"measurement": "toxicity", "setting": "[1]; 0.098 to 50 mg/kg, observed 2 weeks", "value": "no significant toxicity"}, {"measurement": "inhibiting activity against scaffold-independent proliferation capacity", "setting": "KS-1 cells", "value": "did not exhibit an inhibiting activity"}, {"measurement": "cell proliferation inhibiting activity compared with AG1478, Gefitinib and Erlotinib", "setting": "NIH3T3/EGFR vIII cells; 3D cell culture step", "value": "more significant cell proliferation inhibiting activity"}, {"measurement": "IC50", "setting": "NIH3T3/EGFR vIII cells; Mus musculus, 72 h, NIH3T3/EGFR vIII cells, Ultra Low Attachment plate, 3 days, […]-GLO", "value": 12, "unit": "nM"}, {"measurement": "inhibiting activity against scaffold-independent proliferation capacity", "setting": "NIH3T3/EGFR vIII cells; Test Example 3, NIH3T3/EGFR vIII cells", "value": "exhibited an inhibiting activity"}, {"measurement": "inhibition of proliferation of the NIH3T3/EGFRWT cells", "setting": "NIH3T3/EGFRWT cells; 3D cell culture step, EGF 50 ng/mL in medium", "value": "inhibited proliferation"}, {"measurement": "inhibiting activity against scaffold-independent proliferation capacity", "setting": "NIH3T3/EGFRWT cells; Test Example 3, NIH3T3/EGFRWT cells, EGF-including medium", "value": "exhibited an inhibiting activity"}]}]}
